This note sets out measurements from patent publication US20160102317A1, “PLANTS HAVING INCREASED TOLERANCE TO HERBICIDES” (BASF SE, priority 2013, published 2016).

Test [1] deals with T1, Hordeum HPPD (SEQ ID: 2) L320H (Hordeum vulgare, UniProt O48604, A164G/L320H/R146V/R147D/R148G).
T1 construct: His (N); made in house; host or cells: E. coli BL21 (DE3)
The test is described as follows: HPPD activity assay, in vitro characterization of HPPD mutants. Conditions: Table 16, Hordeum wild-type = 1. It counts as biochemical. Here is the method:
(§1) HPPD produces homogentisic acid and CO2 from 4-hydroxyphenylpyruvate (4-HPP) and 02. The activity assay for HPPD is based on the analysis of homogentisic acid by reversed phase HPLC. The assay mixture can contain 150 mM potassium phosphate buffer pH 7.0, 50 mM L-ascorbic acid, 100 μM Catalase (Sigma-Aldrich), 1 μM FeSO4 and 0.2 units of purified HPPD enzyme in a total volume of 505 μl. 1 unit is defined as the amount of enzyme that is required to produce 1 nmol of HGA per minute at 20° C.
(§2) After a preincubation of 30 min the reaction is started by adding 4-HPP to a final concentration of 0.05 mM. The reaction is allowed to proceed for 45 min at room temperature. The reaction is stopped by the addition of 50 μl of 4.5 M phosphoric acid. The sample is filtered using a […] pore size PVDF filtration device.
(§3) 5 μl of the cleared sample is analyzed on an UPLC HSS T3 column (particle size 1.8 μm, dimensions 2.1×50 mm; Waters) by isocratic elution using 90% 20 mM NaH2PO4 pH 2.2, 10% methanol (v/v).
(§4) HGA is detected electrochemically at 750 mV (mode: DC; polarity: positive) and quantified by integrating peak areas (Empower software; Waters).
(§5) Inhibitors are dissolved in DMSO (dimethylsulfoxide) to a concentration of 0.5 mM. From this stock solution serial five-fold dilutions are prepared in DMSO, which are used in the assay. The respective inhibitor solution accounts for 1% of the assay volume. […] Activities are normalized by setting the uninhibited enzyme activity to 100%. IC50 values are calculated using non-linear regression.
(§6) Purified, mutant HPPD enzymes are obtained by the methods described above. Dose response and kinetic measurements are carried out using the described HPPD activity assay. Apparent michaelis constants (Km) and maximal reaction velocities (Vmax) are calculated by non-linear regression with the software GraphPad Prism 5 (Graph Pad Software, La Jolla, USA) using a substrate inhibition model. […] Weighted means (by standard error) of Km and IC50 values are calculated from at least three independent experiments.
(§7) Field performance of the optimized HPPD enzyme, which is used as a herbicide tolerance trait may depend not only on its lack of sensitivity towards HPPD inhibiting herbicides but also on its activity. To assess the potential performance of a herbicide tolerance trait a tolerance index (TI) is calculated using the following formula: […]
(§8) Easy comparison and ranking of each trait is enabled by normalizing tolerance indexes on Arabidopsis wild-type HPPD.

Test [2] deals with T2, Hordeum HPPD (SEQ ID: 2) L353M, P321R, L320N (Hordeum vulgare, UniProt O48604, L320N/L353M/P321R).
T2 construct: His (N); made in house; host or cells: E. coli BL21 (DE3)
The description is as above. Conditions: Table 16, Hordeum wild-type = 1. It counts as biochemical. Here is the method: as §1, §2, §3, §4, §5, §6, §7, §8

The target of test [3] is T3, Hordeum HPPD (SEQ ID: 2) L353M, P321R, L320Q (Hordeum vulgare, UniProt O48604, L320Q/L353M/P321R).
T3 construct: His (N); made in house; host or cells: E. coli BL21 (DE3)
Described as above. It counts as biochemical. Conditions: Table 16, Hordeum wild-type = 1. Here is the method:
as §1, §2, §3, §4, §5, §6, §7, §8

The target in test [4] is T4, Hordeum HPPD (SEQ ID: 2) R309K (Hordeum vulgare, UniProt O48604, A164G/R146V/R147D/R148G/R309K).
T4 construct: His (N); made in house; host or cells: E. coli BL21 (DE3)
The test is described as above. It counts as biochemical. Conditions: Table 16, Hordeum wild-type = 1. On the procedure: as §1, §2, §3, §4, §5, §6, §7, §8

For test [5], the target named is T5, Hordeum HPPD (SEQ ID: 2) S252T (Hordeum vulgare, UniProt O48604, A164G/R146V/R147D/R148G/S252T).
T5 construct: His (N); made in house; host or cells: E. coli BL21 (DE3)
The test is described as above. The format is biochemical. Conditions: Table 16, Hordeum wild-type = 1. On the procedure: as §1, §2, §3, §4, §5, §6, §7, §8

The subject of test [6] is Arabidopsis overexpression line AtHPPD (Seq ID: 53). Description: Arabidopsis growth inhibition in 48-well plates, tolerance factor. It counts as in vivo, Arabidopsis thaliana. Conditions: plant growth IC50 of transgenic / wild-type plants. The source says:
Rows A-F are individual events. Non-transformed control plants are marked as wild-type (WT). The HPPD-inhibiting herbicide used refers to (NE)-8-chloro-N-(4-methoxy-1,2,5-oxadiazol-3-ylidene)-4,4-dimethyl-1,1-dioxo-2,3-dihydrothiochromene-7-carboxamide
(§9) Arabidopsis thaliana is transformed with HPPD or HST sequences by floral dip method as described by McElver and Singh (WO 2008/124495). Transgenic Arabidopsis plants are subjected to TaqMan analysis for analysis of the number of integration loci.
Depending on the species, the plants are kept at 10-25° C. or 20-35° C. The test period extends over 3 weeks. During this time, the plants are tended and their response to the individual treatments is evaluated. Herbicide injury evaluations are taken at 2 and 3 weeks after treatment. Plant injury is rated on a scale of 0 to 9, 0 being no injury and 9 being complete death. Tolerance to HPPD-inhibiting herbicides can also be assessed in Arabidopsis. In this case transgenic Arabidopsis thaliana plants are assayed for improved tolerance to HPPD-inhibiting herbicides in 48-well plates. […] Seven to ten days after seeding growth inhibition is evaluated by comparison to wild-type plants. Tolerance factor is calculated by dividing the plant growth IC50 value of transgenic plants containing a HPPD and/or HST sequence by that of wild-type plants.

The subject of test [7] is Arabidopsis overexpression line AtHPPD (Seq ID: 53) F381I. The test is described as above. It counts as in vivo, Arabidopsis thaliana. Conditions: plant growth IC50 of transgenic / wild-type plants. On the procedure: as §9
(§10) Depending on the species, the plants are kept at 10-25° C. or 20-35° C. The test period extends over 3 weeks. During this time, the plants are tended and their response to the individual treatments is evaluated. Herbicide injury evaluations are taken at 2 and 3 weeks after treatment. Plant injury is rated on a scale of 0 to 9, 0 being no injury and 9 being complete death. Tolerance to HPPD-inhibiting herbicides can also be assessed in Arabidopsis. In this case transgenic Arabidopsis thaliana plants are assayed for improved tolerance to HPPD-inhibiting herbicides in 48-well plates. Seeds are surface sterilized by stirring for 5 min in ethanol+water (70+30 by volume), rinsing one time with ethanol+water (70+30 by volume) and two times with a sterile, deionized water. The seeds are resuspended in 0.1% agar dissolved in water (w/v). Four to five seeds per well are plated on solid nutrient medium consisting of half-strength Murashige Skoog nutrient solution, pH 5.8 (Murashige and Skoog (1962) Physiologia Plantarum 15: 473-497). Compounds are dissolved in dimethylsulfoxid (DMSO) and added to the medium prior solidification (final DMSO concentration 0.1%). Multi well plates are incubated in a growth chamber at 22° C., 75% relative humidity and 110 μmol Phot*m-2*s-1 with 14:10 h light:dark photoperiod. Seven to ten days after seeding growth inhibition is evaluated by comparison to wild-type plants. Tolerance factor is calculated by dividing the plant growth IC50 value of transgenic plants containing a HPPD and/or HST sequence by that of wild-type plants.

Test [8] concerns Arabidopsis overexpression line AtHPPD (Seq ID: 53) M335H, P336G, E363Q. The test is described as above. It counts as in vivo, Arabidopsis thaliana. Conditions: plant growth IC50 of transgenic / wild-type plants. On the procedure: as §9, §10
In test [9] the test system is Arabidopsis overexpression line HvHPPD (SEQ ID: 2) L320H, P321A. Described as above. It counts as in vivo, Arabidopsis thaliana. Conditions: plant growth IC50 of transgenic / wild-type plants. Here is the method: as §9, §10
For test [10], the system named is Arabidopsis overexpression line HvHPPD (SEQ ID: 2). The description is as above. The format is in vivo, Arabidopsis thaliana. Conditions: plant growth IC50 of transgenic / wild-type plants. On the procedure: as §9, §10
Test [11] has as its system Arabidopsis overexpression line Picrophilus HPPD. The description is as above. The format is in vivo, Arabidopsis thaliana. Conditions: plant growth IC50 of transgenic / wild-type plants. On the procedure:
as §9, §10

Values joined by “and” are separate entries in the source; they are usually repeats but may differ in a detail not shown here. Equal values may be shown once.

T3 sequence (O48604 whole entry R146V/R147D/R148G/A164G/L320Q/P321R/L353M): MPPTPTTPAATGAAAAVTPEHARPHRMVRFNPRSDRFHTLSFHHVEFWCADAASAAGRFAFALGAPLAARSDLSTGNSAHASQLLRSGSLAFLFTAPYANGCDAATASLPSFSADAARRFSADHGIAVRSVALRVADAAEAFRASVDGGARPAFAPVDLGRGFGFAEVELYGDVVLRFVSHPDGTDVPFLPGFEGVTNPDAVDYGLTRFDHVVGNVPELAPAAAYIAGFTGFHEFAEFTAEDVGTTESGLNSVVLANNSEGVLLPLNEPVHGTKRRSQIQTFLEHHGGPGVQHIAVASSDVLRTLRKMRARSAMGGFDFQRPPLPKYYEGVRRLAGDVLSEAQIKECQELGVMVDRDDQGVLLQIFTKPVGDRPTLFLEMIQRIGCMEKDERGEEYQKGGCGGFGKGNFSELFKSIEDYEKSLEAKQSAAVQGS
T2 sequence (O48604 whole entry R146V/R147D/R148G/A164G/L320N/P321R/L353M): as the sequence (O48604 whole entry R146V/R147D/R148G/A164G/L320Q/P321R/L353M) above, with Q320N counted along it
T4 sequence (O48604 whole entry R146V/R147D/R148G/A164G/R309K): as the sequence (O48604 whole entry R146V/R147D/R148G/A164G/L320Q/P321R/L353M) above, with R309K, Q320L, R321P, M353L counted along it
T5 sequence (O48604 whole entry R146V/R147D/R148G/A164G/S252T): as the sequence (O48604 whole entry R146V/R147D/R148G/A164G/L320Q/P321R/L353M) above, with S252T, Q320L, R321P, M353L counted along it
T1 sequence (O48604 whole entry R146V/R147D/R148G/A164G/L320H): as the sequence (O48604 whole entry R146V/R147D/R148G/A164G/L320Q/P321R/L353M) above, with Q320H, R321P, M353L counted along it

For the molecule `Cc1c(C(=O)Nc2nnnn2C)ccc2c1C(=O)C(C)(C)CS2(=O)=O` [Inhibitor 2, 3,3,5-trimethyl-N-(1-methyltetrazol-5-yl)-1,1,4-trioxo-2H-thiochromene-6-carboxamide], the “TI Inhibitor 2 (normalized tolerance index)” value was 4.4 in test [1]; 3.5 in test [2]; 3.5 and 3.4 in test [3]; 2.8 in test [4]; 5.9 in test [5]. The “Tolerance factor towards Inhibitor 2” value in test [6] came out at 3; in test [7], 60.8; in [8] it was 60.8; in [9], 7.9; in [10] it was 10.2; in [11] it was 2.6.

As for `COc1no[nH]/c1=N/C(=O)c1ccc2c(c1Cl)S(=O)(=O)CCC2(C)C` [Inhibitor 1, (NE)-8-chloro-N-(4-methoxy-1,2,5-oxadiazol-3-ylidene)-4,4-dimethyl-1,1-dioxo-2,3-dihydrothiochromene-7-carboxamide], the “TI Inhibitor 1 (normalized tolerance index)” value in test [1] was 0.6; in test [2] it was 0.2; in test [3], 1.2; in test [4], 0.4; in [5] it was 2.4. In addition, the “Tolerance factor towards Inhibitor 1” value in [6] stood at 6.4; in [7], 37.5; in test [8] it was 15.8; in test [9] it was 85; in test [10] it was 76; in test [11], 4.5.
